We go through ten molecules from US20120295920A1, “5-AMINO-4-HYDROXYPENTOYL AMIDES” (priority 2009, published 2012).

For data set [1], the system named is mock-infected MT4 cells. As to the kind of experiment: General toxicity assay on mock-infected MT4 cells with CMV-EGFP reporter (CC50). It is filed as cell-based.
Data set [2] has as its system HIV-1 IIIB. As to the kind of experiment: 50% HS-Rezazurin: antiviral assay in the presence of 50% human serum, MT-4 cells, resazurin cell viability. It is filed as cell-based. On the procedure:
For the Antiviral assay in the presence of 50% human serum MT-4 cells were infected with HIV-1 IIIB at a MOI of 0.001 to 0.01 CCID50/cell in RPMI1640 medium. Following 1 h of incubation, cells were washed and plated into a 96-well plate containing serial dilutions of compound in the presence of 10% fetal calf serum (FCS), or 50% human serum. After 4 days incubation, the EC50 in the presence of 50% human serum was determined by a cell viability assay using resazurin.
The last column lists the results for the wild-type strain IIB in the presence of 50% human serum MT-4 cells.
(In general: Alamar Blue is a resazurin reagent that responds to reducing activity.)

For data set [3], the system named is HIV-1 Strain B (M046I, I050V). As to the kind of experiment: microbe, parasite or virus in culture. It is filed as cell-based. The conditions noted are these: clinical isolate Strain B; read-out: B EC50. The protocol:
(§1) MT4-LTR-EGFP cells were obtained by transfecting MT4 cells with a selectable construct encompassing the sequences coding for the HIV long terminal repeat (LTR) as a promoter for the expression of enhanced green fluorescent protein (EGFP) and subsequent selection of permanently transfected cells.
(§2) The antiviral activity on different HIV-1 strains, was determined in a cell-based virus replication assay. Here MT4-LTR-EGFP cells (150,000 cells/ml) are infected (multiplicity of infection [MOI] of 0.0025) in the presence or absence of different inhibitor concentrations. Two methodologies for read-out were used, either quantification of GFP-fluoresence on day 3 post-infection, or quantification of cell-viability using rezazurin (as described by Fields, R. D., and M. V. Lancaster (1993) Am. Biotechnol. Lab. 11:48-50) on day 4 post infection.
(§3) In the following Table, Strains A, B, and C are clinical isolates that include the following protease inhibitor resistance mutations in the protease domain (background mutations are not mentioned).

Data set [4] relates to HIV-1 Strain A (M046I, I084V). As to the kind of experiment: microbe, parasite or virus in culture. It is filed as cell-based. The conditions noted are these: clinical isolate Strain A; read-out: A EC50. The protocol:
as §1, §2, §3

Data set [5] relates to HIV-1 Strain C (G048G/V, V082A). As to the kind of experiment: microbe, parasite or virus in culture. It is filed as cell-based. The conditions noted are these: clinical isolate Strain C; read-out: C EC50. The protocol: as §1, §2, §3
Data set [6] relates to HIV-1 wild-type strain. Briefly: General antiviral assay, cell-based virus replication in MT4-LTR-EGFP cells, wild-type strain. The protocol: as §1, §2
The mark [7] stands for this setting: MT4LTR cells, read-out: TOX-MT4LTR (CC50).
Setting [8] is: mock-infected MT4 cells with CMV-EGFP reporter, read-out: TOX-MT4CMV (CC50).
The mark [9] stands for this setting: wild-type strain IIIB, MT4-LTR-EGFP cells.

Like-named read-outs stand apart in the source and are kept apart here.

With `COC(=O)N[C@H](C(=O)N[C@@H](Cc1ccc(-c2ccc(N(C)C)nc2)cc1)[C@@H](O)C[C@@H](Cc1cccc(F)c1)C(=O)N[C@H]1c2ccccc2OC[C@H]1O)C(C)(C)C` [Compound 36], the 50% cytotoxic concentration (CC50) in data set [1] (setting [7]) and in data set [1] (setting [8]) was over 32000 nM in each case. Further, the concentration giving a half-maximal response (EC50) (usually the midpoint of the concentration-response curve) was 14.3 nM in data set [2]; 1.4 nM in data set [3]; 2.4 nM in data set [4]; 1.3 nM in data set [5]; 2.9 nM in data set [6] (setting [9]).

Turning to `COC(=O)N[C@H](C(=O)N[C@@H](Cc1ccc(-c2cnc(N(C)C)nc2)cc1)[C@@H](O)C[C@@H](Cc1cccc(OC(F)(F)F)c1)C(=O)N[C@H]1c2cc(Cl)ccc2OC[C@H]1O)C(C)(C)C` [Compound 49], the CC50 – broadly, the concentration that lowers cell viability or growth by half – in data set [1] (setting [7]) was over 32000 nM. Also, the 50% effective concentration (EC50) in data set [2] is 19 nM; in data set [3], 3.5 nM; in data set [4] it was 5.2 nM; in data set [5] it was 2.9 nM; in data set [6] (setting [9]), 4.1 nM.

For `COC(=O)N[C@H](C(=O)N[C@@H](Cc1ccc(-c2ccc(OC)nc2)cc1)[C@@H](O)C[C@@H](Cc1ccccc1F)C(=O)N[C@H]1c2cc(F)ccc2OC[C@H]1O)C(C)(C)C` [Compound 59], the CC50 in data set [1] (setting [7]) was over 32000 nM. Also, the 50% effective concentration (EC50) in data set [2] worked out at 5.8 nM; in data set [3], 0.6 nM; in data set [4], 0.9 nM; in data set [6] (setting [9]), 1.2 nM.

Take `CCOc1ccc(-c2ccc(C[C@H](NC(=O)[C@@H](NC(=O)OC)C(C)(C)C)[C@@H](O)C[C@@H](Cc3ccccc3F)C(=O)N[C@H]3c4cc(Cl)ccc4OC[C@H]3O)cc2)cn1` [Compound 44]: the CC50 in data set [1] (setting [7]) was over 32000 nM. In addition, the concentration for a half-maximal effect (EC50) in data set [2] worked out at 13.7 nM; in data set [3], 2.2 nM; in data set [5], 2 nM; in data set [6] (setting [9]) it was 3.2 nM.

For the molecule `COC(=O)N[C@H](C(=O)N[C@@H](Cc1ccc(-c2ccc(N(C)C)nc2)cc1)[C@@H](O)C[C@@H](Cc1ccccc1F)C(=O)N[C@H]1[C@H](C)CCC[C@H]1O)C(C)(C)C` [Compound 89], the 50% cytotoxic concentration (CC50) in data set [1] (setting [7]) and in data set [1] (setting [8]) was over 32000 nM throughout. In addition, the values for the concentration for a half-maximal effect (EC50) in data set [2], in data set [5] and in data set [6] (setting [9]) were 4.9 nM, 0.8 nM and 1.1 nM, respectively.

As for `CNC(=O)[C@@H](NC(=O)[C@H](Cc1ccccc1F)C[C@H](O)[C@H](Cc1ccc(-c2ccc(N(C)C)nc2)cc1)NC(=O)O[C@H]1CO[C@H]2OCC[C@H]21)C(C)(C)C` [Compound 69], in data set [1] (setting [8]), the CC50 is over 32000 nM. Further, the EC50 in data set [2] was 26.6 nM; in data set [3], 7 nM; in data set [5], 5.7 nM; in data set [6] (read-out: HIV-IIIB EC50), 11.6 nM.

On to `CN(C)c1ccc(-c2ccc(CC(NC(=O)C(NC(=O)CN3CCCC3)C(C)(C)C)C(O)CC(Cc3cccc(Cl)c3)C(=O)NC3c4cc(F)ccc4OCC3O)cc2)cn1` (centres unmarked) [Compound 9], for which the CC50 in data set [1] (setting [8]) was over 27000 nM. Also, the 50% effective concentration (EC50) in data set [2] amounted to 31.7 nM; in data set [3], 6.6 nM; in data set [5], 3.7 nM; in data set [6] (setting [9]), 8.8 nM.

As for `COC(=O)N[C@H](C(=O)N[C@@H](Cc1ccc(-c2cncc(OC)n2)cc1)[C@@H](O)C[C@@H](Cc1ccccc1F)C(=O)N[C@H]1c2cc(Cl)ccc2OC[C@H]1O)C(C)(C)C` [Compound 24], in data set [1] (setting [8]), the CC50 is over 32000 nM. In addition, the concentration giving a half-maximal response (EC50) in data set [2] amounted to 16.1 nM; in data set [3], 1.9 nM; in data set [5], 1.7 nM; in data set [6] (setting [9]), 3.3 nM.

Consider `COC(=O)NC(C(=O)NC(Cc1ccc(-c2csc(N(C)C)n2)cc1)C(O)CC(Cc1ccccc1F)C(=O)NC1c2cc(Cl)ccc2OCC1O)C(C)(C)C` (centres unmarked) [Compound 20], for which the cytotoxic concentration (CC50) in data set [1] (setting [8]) was found to be 6000 nM. Also, the EC50 amounted to 11.2 nM in data set [2], 7.4 nM in data set [4], 2.7 nM in data set [5] and 3.1 nM in data set [6] (setting [9]).

Turning to `COCCOC(=O)N[C@H](C(=O)N[C@@H](Cc1ccc(-c2ccc(OC)nc2)cc1)[C@@H](O)C[C@@H](Cc1ccccc1Cl)C(=O)N[C@H]1c2cc(F)ccc2OC[C@H]1O)C(C)(C)C` [Compound 57], in data set [1] (setting [7]), the CC50 is over 32000 nM. Moreover, the 50% effective concentration (EC50) in data set [2] is 8.7 nM; in data set [3], 0.9 nM; in data set [5], 0.8 nM; in data set [6] (setting [9]), 1.9 nM.
